Literature values as cited in US20130034605A1, “EXTENDED RELEASE PHARMACEUTICAL COMPOSITIONS CONTAINING PALIPERIDONE” (MICRO LABS LIMITED, priority 2011, published 2013).
Like-named read-outs stand apart in the source and are kept apart here.

Question: What does the source list for Cc1nc2n(c(=O)c1CCN1CCC(c3noc4cc(F)ccc34)CC1)CCCC2O (racemic) [Paliperidone, (RS)-3-[2-[4-(6-fluorobenzo[d]isoxazol-3-yl)-1-piperidyl]ethyl]-7-hydroxy-4-methyl-1,5-diazabicyclo[4.4.0]deca-3,5-dien-2-one]?
Answer: Solubility (in 0.1 N hydrochloric acid): soluble; Solubility (in methanol): soluble; Solubility (in methylene chloride): freely soluble; Solubility (in water): practically insoluble
